Experimental data published in PubChem BioAssay AID1963828 (Molecular Pharmacology Branch, DTP, NCI, 2024).

Test system: 991263-137-R1-J2-PDC complex spheroid viability
Test: Anticancer human tumor 991263-137-R1-J2-PDC patient-derived colon adenocarcinoma cell line growth inhibition [POLQ]
Conditions: for IC50: curve of first compound; for viability, T/C: stronger effect = lower value
Experimental: Multicellular complex tumor spheroid response to Polymerase (POL) inhibitors (novobiocin, ART-558, RP6685) in combination with a variety of drugs and investigational agents in selected tumor cell lines
The POL inhibitors (novobiocin, ART-558, and RP6685) were evaluated both individually and in combination with standard of care and investigational anticancer small molecules within a complex spheroid model of solid tumors. . Complex spheroids include a stromal component modeled by human endothelial cells (HUVEC) and fibroblasts modeled by human mesenchymal stem cells (MSCs). The concentration ranges selected for each drug and investigational agent were based upon clinically achievable concentrations if the clinical Cmax of the agent was known.
Compounds. The drugs and investigational agents: novobiocin (NSC847541), ART-558 (NSC835418), RP-6685 (NSC848927), peposertib (NSC802822), ceralasertib (NSC780249), elimusertib (NSC800525), camonsertib (NSC841442), AZD-1390 (NSC803789), olaparib (NSC753686), talazoparib (NSC767125), rucaparib (NSC756644), sotorasib (NSC818433), MRTX-1133 (NSC836407), SN-38 (NSC673596), topotecan (NSC609699), epotoside (NSC141540), doxorubicin (NSC123127), gemcitabine (NSC613327), 5-fluorouracil (NSC19893), paclitaxel (NSC125973), vemurafenib (NSC761431), MSA-2 (NSC828583), SN-011 (NSC837082), adavosertib (NSC754352), prexasertib (NSC758257), carboplatin (NSC241240) and oxaliplatin (NSC266046), were obtained from the National Cancer Institute (NCI) Developmental Therapeutics Program Chemical Repository (21). The FDA-approved anticancer drug set is available from the Developmental Therapeutics Program at https://dtp.cancer.gov/organization/dscb/obtaining/. […] The stock solutions were prepared in dimethyl sulfoxide (DMSO, Sigma-Aldrich, St. Louis, MO, cat. D2650), except for the platinum compounds which were prepared in saline (Quality Biological, Gaithersburg, MD, cat. 114-055-101), at 800-fold the tested concentration and stored at -70 degrees C prior to their use. All drugs and investigational agents were tested over a range starting from a high concentration at or near the clinical Cmax and decreasing in half-log increments. If the clinical Cmax for an agent had not been determined, the highest concentration tested was 10 microM, except for SN-38, which was tested at a high concentration of 1 microM.
Cell Culture. All cells were maintained in an incubator at 37 degrees C and 5% CO2 with 95% humidity. The PDC lines were cultured according to standard operating procedures established by the NCI PDMR (https://pdmr.cancer.gov). Table 3 of the manuscript, lists the cell lines along with the number of the three cell types plated to form the mct-spheroids and media for tumor cell growth. After thawing, all PDC lines, except 997537-175-T-J1-PDC and 415267-285-R-J2-PDC, were cultured in Matrigel-coated flasks prepared with a working solution of 1X Ham's F-12 nutrient mix, without supplementation (Thermo Fisher Scientific, cat. 11765054), 100 U/mL penicillin-streptomycin (Thermo Fisher Scientific, cat. 15140122), and 2.5% Matrigel (Corning Inc., Corning, NY, cat. 354248) for the first three passages. The two PDC lines 997537-175-T-J1-PDC and 415267-285-R-J2-PDC were cultured on uncoated flasks. The 857933-349-R-J2-PDC line was cultured in 6C/Colon 1B media containing advanced DMEM/F-12 (Thermo Fisher Scientific, cat. 12634028), 10 mM HEPES (Thermo Fisher Scientific, cat. 15630080), 1X GlutaMAX supplement (Thermo Fisher Scientific, cat. 35050061), 0.1 mg/mL primocin (InvivoGen, San Diego, CA, cat. ant-pm-2), 10% defined fetal bovine serum, heat inactivated (HyClone Laboratories Inc., Logan, UT, cat. SH30070.03HI), 50% L-WRN conditioned media (ATCC, cat. CRL-3276), 1.25 mM N-Acetyl-L-cysteine (Sigma-Aldrich, cat. A9165), 10 mM nicotinamide (Sigma-Aldrich, cat. N0636), 1X B-27 supplement (Thermo Fisher Scientific, cat. 17504044), 1X N-2 supplement (Thermo Fisher Scientific, cat. […]
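Also: spheroids exposed to compounds for 7 days before readout.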
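For viability, T/C in this document: 100% = DMSO vehicle control viability.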

CNCc1ccc(-c2[nH]c3cc(F)cc4c3c2CCNC4=O)cc1 + Nc1ccc(C#CCN(C(=O)Cc2ncc(C(F)(F)F)cc2C(F)(F)F)c2ccc(F)cc2)nn1
IC50 (second compound 0.0316 µM): > 10 µM | IC50 (second compound 0.1 µM): > 10 µM | IC50 (second compound 0.316 µM): > 10 µM | IC50 (second compound 1 µM): > 10 µM | IC50 (second compound 3.16 µM): > 10 µM | IC50 (second compound 10 µM): > 10 µM | viability, T/C (second compound 0.0316 µM, first compound 0.0316 µM): 98.4% | viability, T/C (second compound 0.0316 µM, first compound 0.1 µM): 91.8% | viability, T/C (second compound 0.0316 µM, first compound 0.316 µM): 98.2% | viability, T/C (second compound 0.0316 µM, first compound 1 µM): 93.4% | viability, T/C (second compound 0.0316 µM, first compound 3.16 µM): 97.7% | viability, T/C (second compound 0.0316 µM, first compound 10 µM): 117% | viability, T/C (second compound 0.1 µM, first compound 0.0316 µM): 112% | viability, T/C (second compound 0.1 µM, first compound 0.1 µM): 99.5% | viability, T/C (second compound 0.1 µM, first compound 0.316 µM): 114% | viability, T/C (second compound 0.1 µM, first compound 1 µM): 95.1% | viability, T/C (second compound 0.1 µM, first compound 3.16 µM): 110% | viability, T/C (second compound 0.1 µM, first compound 10 µM): 108% | viability, T/C (second compound 0.316 µM, first compound 0.0316 µM): 104% | viability, T/C (second compound 0.316 µM, first compound 0.1 µM): 97.2% | viability, T/C (second compound 0.316 µM, first compound 0.316 µM): 96.3% | viability, T/C (second compound 0.316 µM, first compound 1 µM): 101% | viability, T/C (second compound 0.316 µM, first compound 3.16 µM): 93.2% | viability, T/C (second compound 0.316 µM, first compound 10 µM): 119% | viability, T/C (second compound 1 µM, first compound 0.0316 µM): 99.2% | viability, T/C (second compound 1 µM, first compound 0.1 µM): 90.1% | viability, T/C (second compound 1 µM, first compound 0.316 µM): 93% | viability, T/C (second compound 1 µM, first compound 1 µM): 97% | viability, T/C (second compound 1 µM, first compound 3.16 µM): 106% | viability, T/C (second compound 1 µM, first compound 10 µM): 106% | viability, T/C (second compound 3.16 µM, first compound 0.0316 µM): 94.5% | viability, T/C (second compound 3.16 µM, first compound 0.1 µM): 98% | viability, T/C (second compound 3.16 µM, first compound 0.316 µM): 103% | viability, T/C (second compound 3.16 µM, first compound 1 µM): 99.7% | viability, T/C (second compound 3.16 µM, first compound 3.16 µM): 97.1% | viability, T/C (second compound 3.16 µM, first compound 10 µM): 100% | viability, T/C (second compound 10 µM, first compound 0.0316 µM): 88.1% | viability, T/C (second compound 10 µM, first compound 0.1 µM): 97.5% | viability, T/C (second compound 10 µM, first compound 0.316 µM): 99.3% | viability, T/C (second compound 10 µM, first compound 1 µM): 94.5% | viability, T/C (second compound 10 µM, first compound 3.16 µM): 103% | viability, T/C (second compound 10 µM, first compound 10 µM): 109%
